What was measured:
[1] = test system: MTAse competent A427 cells; experiment: growth restoration by MTAse substrates after L-alanosine (FIG. 3); assay type: cell-based
[2] = test system: MTAse competent MOLT-4 cells; experiment: as above; assay type: cell-based
[3] = test system: MTAse deficient A549 cells; experiment: as above; assay type: cell-based
[4] = test system: MTAse deficient CEM cells; experiment: as above; assay type: cell-based
[5] = test system: MTAse deficient H292 cells; experiment: proliferation in presence of L-alanosine with MTA or adenine added (FIG. 2); assay type: cell-based; conditions: L-alanosine 40 μM
MV522Q6 cells = experiment: growth of MDR cells by reduction of a tetrazolium dye (FIG. 1A); assay type: cell-based, human; conditions: 10 μM; for sensitivity of the resistant cell line to chemotherapy: MV522Q6 compared with MV522, three days
Experimental: MV522 is a human cancer cell line; MV522Q6 is a variant of the cell line with MDR. Each cell line was grown in a monolayer as and contacted with 10 μM of a chemotherapeutic agent and/or L-alanosine (as shown in FIGS. 1A and 1B). Growth, or the lack thereof, was measured in each population of cells by reduction of a tetrazolium dye after three days in culture.
FIG. 1A is a graph depicting the effect of L-alanosine and different chemotherapeutic agents (vinblastine and taxol) on a MDR cancer cell line (MV522Q6). FIG. 1B is a graph depicting the effect of the same drugs on the cell line before acquisition of resistance (MV522). […] However, the adenine synthesis inhibitor L-alanosine is nearly 10 times as potent in the resistant cell line than the other agents tested.

MES-SA/Dx5 cells [6] = conditions: cited from earlier work
MES-SA/Dx5 cells [7] = experiment: growth of MES-SA/Dx5 drug resistant cells with L-alanosine and other agents; assay type: cell-based; conditions: data not shown
A549 NSCLC cells = experiment: tumor xenograft in nude mice, MTAP-deficient A549 cells (FIG. 5); assay type: in vivo, Balb/c athymic nude mice; conditions: i.p. every 12 hours; 15 mg/kg per injection 7 days then 22.5 mg/kg 5 days
Experimental: (§1) 10^7 A549 or A427 NSCLC cells were injected subcutaneously into 6-week old Balb/c athymic nude mice. When tumors had reached approximately 0.4 cm diameter, treatment was begun with L-alanosine or saline by intraperitoneal injection every 12 hours. Mice received 15 mg/kg per injection for 7 days then 22.5 mg/kg for 5 days. Tumor size was measured as the product of perpendicular diameters. The results for treated (n=6 [sample size] for each cell type) vs. control (n=4 [sample size] for each cell type) mice are shown in FIG. 5.

A427 NSCLC cells = experiment: tumor xenograft in nude mice, MTAP-positive A427 cells (FIG. 5); assay type: in vivo, Balb/c athymic nude mice; conditions: i.p. every 12 hours; 15 mg/kg per injection 7 days then 22.5 mg/kg 5 days
Experimental: as §1

[8] = toxicity / body weight of nude mice in xenograft study; assay type: in vivo, Balb/c athymic nude mice
Experimental: 10^7 A549 or A427 NSCLC cells were injected subcutaneously into 6-week old Balb/c athymic nude mice. When tumors had reached approximately 0.4 cm diameter, treatment was begun with L-alanosine or saline by intraperitoneal injection every 12 hours.
Mice received 15 mg/kg per injection for 7 days then 22.5 mg/kg for 5 days. Tumor size was measured as the product of perpendicular diameters. The results for treated (n=6 [sample size] for each cell type) vs. control (n=4 [sample size] for each cell type) mice are shown in FIG. 5.

human cancers = conditions: cited from earlier work
melanoma = conditions: Phase II, melanoma patients; cited from earlier work
breast cancer = breast cancer patients; cited from earlier work
MTAse competent cancers = conditions: cited from earlier work
[9] = humans, intravenous, cited from earlier work
[10] = cited from earlier work

C[C@H]1O[C@@H](n2cnc3c(N)ncnc32)[C@H](O)[C@@H]1O [5'-deoxyadenosine]
growth restoration [1]: growth restoration
growth restoration [2]: growth restoration
growth restoration [3]: remained growth inhibited
growth restoration [4]: remained growth inhibited

Nc1ncnc2nc[nH]c12 [adenine]
proliferation of control cultures containing adenine ([5]; control cultures with adenine (Calu-6 / H292)): proliferate despite L-alanosine

CC(=O)O[C@H]1C(=O)[C@@]2(C)[C@H]([C@H](OC(=O)c3ccccc3)[C@]3(O)C[C@H](OC(=O)[C@H](O)[C@@H](NC(=O)c4ccccc4)c4ccccc4)C(C)=C1C3(C)C)[C@]1(OC(C)=O)CO[C@@H]1C[C@@H]2O [taxol]
sensitivity of the resistant cell line to chemotherapy (MV522Q6 cells): greatly reduced
resistance level to chemotherapeutic agents (MES-SA/Dx5 cells [6]): highly resistant

N[C@@H](CN(O)N=O)C(=O)O [L-alanosine]
potency of L-alanosine in the resistant cell line relative to the other agents tested (MV522Q6 cells; MV522Q6 (MDR), three days in culture): ~10 times
potency in the resistant cell line vs the non-resistant cell line (MV522Q6 cells; MV522Q6 vs MV522): as, if not more, potent in the resistant cell line than in the non-resistant cell line
effect on drug resistant cell line vs other agents tested (MES-SA/Dx5 cells [7]): significantly more affected by L-alanosine than by the other agents tested
inability to proliferate in the presence of L-alanosine despite MTA ([5]; H292 compared with Calu-6, with MTA): selective inability of MTAse deficient NSCLC cells to proliferate
size of well-established MTAP-deficient tumors (A549 NSCLC cells): decrease in the size
effect on growth of MTAP-positive cells (A427 NSCLC cells): no effect on the growth
toxicity ([8]; 15 and 22.5 mg/kg per injection, i.p. every 12 hours): No toxicity was evident
body weight ([8]; throughout testing): stable weights
overall response rate (human cancers; Phase II studies, Creagan et al.): 4%
efficacy for treatment of human cancers (human cancers; Tyagi and Cooney 1984): little encouragement
therapeutic response (melanoma): little therapeutic response observed
objective responses (breast cancer): no objective responses observed
success in clinical trials (MTAse competent cancers): no appreciable success
plasma clearance [9]: biphasic
t1/2α ([9]; plasma, biphasic, approximate): ~14 min
t1/2β ([9]; plasma, biphasic, approximate): ~99 min
dose limiting toxicity ([10]; continuous infusion about 125 mg/m^2 for 5 days, adults, acute non-lymphoblastic leukemia, phase II): mucositis
toxicity after multiple bolus dosing ([10]; multiple bolus dosing): Stomatitis and esophagitis
dose-limiting toxicity ([10]; prior clinical trials): renal toxicity, stomatitis, esophagitis
reactions with lesser frequency ([10]; prior clinical trials): myelosuppression, headache, nausea and hypo- or hypertension
dose at which renal toxicity occurred ([10]; single bolus dosing): above 4 g/m^2 body weight
dose at which two pediatric patients suffered liver failure ([10]; two pediatric patients, separate doses): about 350 mg/m^2 body weight per day

CC[C@]1(O)C[C@@H]2CN(CCc3c([nH]c4ccccc34)[C@@](C(=O)OC)(c3cc4c(cc3OC)N(C)[C@H]3[C@@](O)(C(=O)OC)[C@H](OC(C)=O)[C@]5(CC)C=CCN6CC[C@]43[C@@H]65)C2)C1 [vinblastine]
sensitivity of the resistant cell line to chemotherapy (MV522Q6 cells): greatly reduced
resistance level to chemotherapeutic agents (MES-SA/Dx5 cells [6]): highly resistant

From patent US6210917A, “Method for suppressing multiple drug resistance in cancer cells” (priority 1997, dated 2001)
